BindingDB's records for doi:10.1016/j.bmc.2009.07.009 (Universita Degli Studi Di Milano, 2009)

Molecular target: XIAP (Homo sapiens)
Assay: Fluorescence polarization was measured on an Ultra plate reader (Tecan) at excitation and emission wavelengths of 485 and 530 nm, respectively. The equilibrium binding curves were drawn by plotting millipolarization units (mP) as a function of recombinant XIAP concentration. All experiments were performed in black, flat-bottomed, 96-well mic
Conditions: pH 7.5

With `CC[C@H](N)C(=O)N[C@@H]1C(=O)N2[C@@H](CC[C@@H]1COC(=O)c1ccccc1)CC[C@H]2C(=O)NC(c1ccccc1)c1ccccc1` [1-aza-2-oxobicyclo[5.3.0]decane scaffold, 12b] the IC50 was 600 nM.

With `CC[C@H](N)C(=O)N[C@@H]1C(=O)N2[C@@H](CC[C@@H]1CCN)CC[C@H]2C(=O)NC(c1ccccc1)c1ccccc1` [(3S,6S,7R,9aS)-6-[(2S)-2-aminobutanamido]-7-(2-aminoethyl)-N-(diphenylmethyl)-5-oxo-octahydro-1H-pyrrolo[1,2-a]azepine-3-carboxamide] the IC50 was 250 nM.
